Counter-ions that a name gives are not always drawn.
Tests used:
[1] = system: NK-2 receptors; assay: Antagonism for NK-2 receptors (neurokinin A induced contraction of isolated trachea); type: cell-based, Hartley strain male guinea pigs; settings: concentration 5 × 10^-9 M; neurokinin A 1×10^-9 M; guinea pig trachea; 110 min incubation
Description: Hartley strain male guinea pigs were killed by a blow on the head and blood-letting, and the tracheas were isolated. Specimens each composed of five slices of the trachea were prepared, and suspended at a tension of 0.5 gw in a magunus bath with an internal volume of 15 ml containing Krebs-Henseleit solution of 37° C. while introducing a mixed gas of 95% O2 +5% CO2 into the bath. As the Krebs-Henseleit solution, that containing indomethacin ([…]) was used for preventing the participation of intrinsic prostaglandins. After confirming the maximum degree of contraction of each specimen by the use of methacholine,a drug or a solvent therefor was added to the solution, followed by incubation for 110 minutes, and neurokinin A (1×10^-9 M) was allowed to act on the specimen. Phosphoramidon (1×10^-5 M) for inhibiting the degradation of neurokinin A and (±)CP-96345 (3×10^-7 M) for preventing the participation of NK-1 receptors were added 30 minutes and 20 minutes, respectively, before the addition of neurokinin A. The degree of contraction due to neurokinin A was converted to the percentage based on the maximum degree of contraction of the specimen, and then the rate of inhibition by the drug was determined relative to the percentage of contraction of the other specimen used in the case of adding the solvent.

[2] = biological target: T1, NK-1 receptors (Cavia porcellus, UniProt P30547); assay: Antagonism for NK-1 receptor (methylsubstance P induced contraction of isolated ileum); type: cell-based, Hartley strain male guinea pigs; settings: guinea pig ileum; methylsubstance P 1×10^-9 M; 35 min incubation; read-out: IC50 of a drug on methylsubstance P induced contraction
T1 construct: the ileums were isolated; from tissue; host or cells: isolated ileum of male Hartley guinea pigs
Description: Hartley strain male guinea pigs were killed by a blow on the head and blood-letting, and the ileums were isolated. A specimen of about 3 cm in length was prepared and then suspended at a tension of 0.5 gw in a 15 magunus bath with an internal volume of 15 ml containing Krebs-Henseleit solution of 37° C. while introducing a mixed gas of 95% O2 +5% CO2 into the bath. As the Krebs-Henseleit solution, that containing atropine (1×10^-6 M) and indomethacin (5×10^-6 M) was used for preventing the participation of intrinsic acetylcholine and prostaglandins. Methylsubstance P (1×10^-9 M), a specific stimulating agent for NK-1 receptors were repeatedly allowed to act on the specimen at intervals of 40 minutes. After the percentage of contraction due to methylsubstance P became constant, a drug was added to the solution to each of various concentrations, followed by incubation for 35 minutes, and methyl-substance P was allowed to act on the specimen again. The rate of inhibition by the drug was determined relative to the percentage of contraction immediately before the addition of the drug, and the 50% inhibitory concentration (IC50) of the drug was determined by means of a regression line.

[3] = system: bronchoconstriction caused by inhalation of an antigen; assay: Inhibitory effect on bronchoconstriction caused by inhalation of antigen (ovalbumin); type: in vivo, Hartley strain male guinea pigs (active sensitization); settings: 10 μmol/kg oral, 50 min before antigen inhalation; measured 8 min after
Description: There were used non-treated Hartley strain male guinea pigs and Hartley strain male guinea pigs received to active sensitization by subcutaneous administration of 30 mg/kg of ovalbumin 14 to 21 days before. The guinea pigs were anesthetized with pentobarbital and a tube was inserted into the trachea of each guinea pig. The guinea pigs were subjected to positive pressure respiration by means of an artificial respiratory apparatus at 10 ml/kg and 60 times/minute. The pressure in the edge of the tube in the trachea was measured as an indication of bronchoconstriction. Spontaneous respiration was inhibited by administering succinylcholine. […] The rate of inhibition by the drug was determined relative to the bronchoconstriction before the drug administration.
To the guinea pigs received to active sensitization, 4.6 μmol/kg of phosphoramidon was intravenously administered, and 15 minutes after the administration, these guinea pigs were allowed to inhale for 2 minutes an aerosol of an antigen ovalbumin solution (2 mg/ml) produced with an ultrasonic nebulizer, to cause bronchoconstriction. […] The inhibition rate of the drug-treated group was determined relative to the bronchoconstriction of the solvent-treated group measured 8 minutes after the antigen inhalation.

[4] = system: Mouse; assay: Toxic effect on mouse, intravenous; type: in vivo
Source text: The toxicity of the compounds of the present invention was investigated.

T1 sequence (P30547 whole entry): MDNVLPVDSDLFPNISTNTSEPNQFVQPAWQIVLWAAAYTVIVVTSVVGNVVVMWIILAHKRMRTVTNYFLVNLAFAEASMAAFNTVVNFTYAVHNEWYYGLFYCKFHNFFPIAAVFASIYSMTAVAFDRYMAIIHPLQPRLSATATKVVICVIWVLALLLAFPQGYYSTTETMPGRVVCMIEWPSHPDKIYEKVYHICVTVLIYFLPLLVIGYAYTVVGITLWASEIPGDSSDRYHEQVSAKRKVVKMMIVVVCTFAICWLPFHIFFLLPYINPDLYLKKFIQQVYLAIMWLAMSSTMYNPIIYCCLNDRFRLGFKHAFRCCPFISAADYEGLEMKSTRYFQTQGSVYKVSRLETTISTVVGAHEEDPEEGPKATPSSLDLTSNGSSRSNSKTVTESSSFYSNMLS

With `CN(CC(CCN1CCc2nc3c(cc2C1)CCCC3)c1ccc(Cl)c(Cl)c1)C(=O)c1ccccc1` (single isomer, unassigned) [Example 25, 2-[(-)-4-(N-benzoyl-N-methyl)amino-3-(3,4-dichlorophenylbutyll-1,2,3,4,6,7,8,9-octahydro-benzo[b][1,6]naphthyridine fumarate] the “Inhibition rate, neurokinin A induced contraction” value [1] was 89.1%, the IC50 [2] was 470 nM and the “Inhibition (rate), inhalation of antigen” value [3] was 54.1%. For the same compound, the Toxicity ([4]; 22 μmol/kg intravenous) was “None” and the Toxicity ([4]; 65 μmol/kg intravenous) was “None”.
